Results on 3 compounds are retold here after patent US7501410B2, “Methods of inhibiting BTK and SYK protein kinases” (Roche Palo Alto LLC, priority 2006, dated 2009).

Values joined by “and” are separate entries in the source; they are usually repeats but may differ in a detail not shown here. Equal entries are not always repeated.

In the experiment the target is T1, Spleen Tyrosine Kinase (SYK) aa 360-635 (Homo sapiens, UniProt P43405).
T1 construct: truncated construct of Spleen Tyrosine Kinase aa 360-635; made in house
The experiment in a line: Determination of IC50 of Spleen Tyrosine Kinase (SYK) inhibition, 33P kinase assay. The following applies: recombinant human SYK360-635, 20 μM ATP; read-out: IC50 (μM) SYK Assay. Format: biochemical. The protocol:
Determination of IC50 of Spleen Tyrosine Kinase (SYK) Inhibition
The SYK kinase assay is a standard kinase assay adapted to a 96 well plate format. This assay is performed in 96-well format for IC50 determination with 8 samples which represented 10 half log dilutions and a 40 μL reaction volume. The assay measures the incorporation of radiolabeled ^33P γATP into an N-terminally biotinylated peptide substrate, derived from naturally occurring phosphoacceptor consensus sequence (Biotin-11aa DY*E). Phosphorylated products were detected upon termination of reactions with EDTA and the addition of Streptavidin coated beads. • Assay plates: 96-well MultiScreen 0.65 um filter plates (Millipore Cat. No.: MADVNOB10) • Streptavidin coated beads: Streptavidin Sepharose TM, suspension 5.0 mL, in 50 mM EDTA/PBS diluted (1:100), (Amersham, Cat. No.: 17-5113-01) • Compounds: 10 mM in 100% dimethylsulfoxide (DMSO), final conc.: compound 0.003-100 uM in 10% DMSO • Enzyme: SYK RPA purified, truncated construct of Spleen Tyrosine Kinase aa 360-635, stock solution 1 mg/mL, MW: 31.2 KDa, final conc.:0.0005 μM. • Peptide 1: biotinylated peptide is derived from a naturally occurring phosphor-acceptor consensus sequence (Biotin-[…]), special order from QCB, stock solution 20 mM, final conc.: 5.0 μM. • ATP: Adenosine-5′-triphosphate 20 mM, (ROCHE Cat. No.:93202720), final concentration: 20 μM • Buffer: HEPES: 2-Hydroxyethyl piperazine-2-ethanesulfonic acid (Sigma, Cat. No.: H-3375) final concentration: 50 mM HEPES pH7.5 • BSA: Bovine Serum Albumin Fraction V, fatty acid free (Roche Diagnostics GmbH, Cat. No. 9100221) diluted to a final concentration of 0.1% • EDTA: EDTA stock solution 500 mM, (GIBCO, Cat. No.: 15575-038) final concentration: 0.1 mM • DTT: 1,4-Dithiothreitol (Roche Diagnostics GmbH, Cat. No.: 197777), final conc.: 1 mM • MgCl2×6H2O: MERCK, Cat. No.: 105833.1000, final concentration: 10 mM • Assay Dilution Buffer (ADB): 50 mM HEPES, 0.1 mM EGTA, 0.1 mM Na Vanadate, 0.1 mM β-glycerophosphate, 10 mM MgCl2, 1 mM DTT, 0,1% BSA, pH 7.5 • Bead wash buffer: 10 g/L PBS (Phosphate buffered saline) with 2M NaCl+1% phosphoric acid Experimental Method:
In 40 μL volume, 26 μL of ADB diluted, purified recombinant human SYK360-635 [0.5 nM] was mixed with 4 μL of 10× concentrations of the test compounds, [usually 100 μM-0.003 μM] in [10%] DMSO and the mixture was incubated for 10 min at RT.
The kinase reaction was initiated by the addition of 10 μL 4× substrate cocktail containing the DYE peptide substrate [0 or 5 μM], ATP [20 μM] and […] [2 μCi/rxn]. After incubation at 30° C. for 15 min, the reaction was terminated by the transfer of 25 μL of the reaction sample to a 96 well 0.65 um Millipore MADVNOB membrane/plate containing 200 μL 5 mM EDTA and 20% Streptavidine coated beads in PBS.
The unbound radionucleotides were washed under vacuum with 3×250 μL 2M NaCl; 2×250 μL 2M NaCl+1% phosphoric acid; 1×250 μL H2O. After the last wash membrane/plates were transferred to an adaptor plate, heat dried for 15 min at 60° C., and 50 μL scintillation cocktail was added to each well and 4 h later the amount of radioactivity was counted in a top counter.
The IC50 was calculated using a non-linear curve fit with XLfit software (ID Business Solution Ltd., Guilford, Surrey, UK). […] Representative results are in Table 1.
In the case of `Cc1cc(Nc2nn(C(C)C)c(=O)c3cc(N4CCOCC4)ccc23)n[nH]1` [Example F-1, 2-Isopropyl-4-(5-methyl-1H-pyrazol-3-ylamino)-7-morpholino-2H-phthalazin-1-one], the IC50 is 0.565 µM and 2.31 µM and 0.526 µM. Turning to `Cc1cc(Nc2nn(C(C)C)c(=O)c3cc(N4CCN(C)CC4)ccc23)[nH]n1` [Example F-5, 2-Isopropyl-7-(4-methyl-piperazin-1-yl)-4-(5-methyl-2H-pyrazol-3-ylamino)-2H-phthalazin-1-one], the IC50 is 0.37 µM and 0.7 µM and 0.536 µM. Regarding `Cc1cc(Nc2nn(C(C)C)c(=O)c3cc(OCCN(C)C)ccc23)n[nH]1` [Example ZD-5, 7-(2-Dimethylamino-ethoxy)-2-isopropyl-4-(5-methyl-1H-pyrazol-3-ylamino)-2H-phthalazin-1-one], the IC50 stood at 1.86 µM.

As usually defined, the IC50 is the concentration at which inhibition is half-maximal.
